Patent US12304899B2, “Factor XI activation inhibitors” (Merck Sharp & Dohme LLC, priority 2019, dated 2025)
pEC50: −log10 of the molar value.

The compounds below were run against T1, Human coagulation factor (F)XI (Homo sapiens, UniProt P03951) (assay: Inhibition of FXIIa mediated activation of FXI (activation of human Factor XI to XIa by human Factor α-XIIa)). Details: human FXI pre-incubated with compound 30 min at 22° C., activation by human FXIIa 60 min, z-GPR-AFC substrate fluorescence, 4 parameter logistic fit; read-out: Inhibition of FXIIa meditated activation of FXI.
T1 construct: purchased Haematologic Technologies Inc. (FXI); Enzyme Research Laboratories (FXIIa) HCXI-150 (FXI); HFXIIa (FXIIa)
T1 sequence (P03951 19-625): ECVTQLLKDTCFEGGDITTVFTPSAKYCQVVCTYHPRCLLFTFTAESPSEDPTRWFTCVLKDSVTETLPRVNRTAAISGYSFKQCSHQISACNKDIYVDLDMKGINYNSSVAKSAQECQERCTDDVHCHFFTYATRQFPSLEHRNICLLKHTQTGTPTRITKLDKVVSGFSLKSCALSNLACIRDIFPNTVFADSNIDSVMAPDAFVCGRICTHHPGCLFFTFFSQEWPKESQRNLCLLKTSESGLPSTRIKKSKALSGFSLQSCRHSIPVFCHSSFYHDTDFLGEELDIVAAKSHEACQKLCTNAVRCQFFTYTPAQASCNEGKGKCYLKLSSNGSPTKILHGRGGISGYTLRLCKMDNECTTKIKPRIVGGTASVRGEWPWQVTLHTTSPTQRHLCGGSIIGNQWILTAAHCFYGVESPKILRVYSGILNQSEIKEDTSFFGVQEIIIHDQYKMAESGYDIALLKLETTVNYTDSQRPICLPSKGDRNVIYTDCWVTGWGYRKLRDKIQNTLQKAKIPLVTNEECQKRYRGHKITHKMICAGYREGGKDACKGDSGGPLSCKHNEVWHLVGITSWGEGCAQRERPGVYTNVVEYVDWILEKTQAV
Type: biochemical
Experimental: Inhibition of FXIIa Mediated Activation of FXI
Activation of Human Factor XI to XIa by Human Factor α-XIIa
The assay was performed in 50 mM HEPES, 150 mM NaCl, 5 mM CaCl2, 0.1% PEG-8000, pH 7.4 buffer in black, flat-bottom, polystyrene microplates (Corning, Cat #3573). Serial dilutions (10-point, 3.333-fold) of the test compounds delivered as 10 mM DMSO stocks were prepared in the Labcyte Echo-qualified PP 384 well microplates (Labcyte, Cat #P-05525). Human coagulation factor (F)XI (Haematologic Technologies Inc., Cat #HCXI-150, concentration 46 nM, 19.5 uL) was pre-incubated with 0.5 uL of the test compounds for 30 min at 22° C. The activation was initiated by addition of 10 uL of human coagulation factor (F)XIIa (Enzyme Research Laboratories, Cat #HFXIIa, concentration 30 nM) and the reaction proceeded for 60 min at 22° C., after which it was quenched by addition of a selective inhibitor of FXIIa (Compound 54 in International Patent Publication WO2018093695) concentration 600 uM in DMSO, 1 uL). 10 min after the quench, 29 uL of z-GPR-AFC substrate (Sigma, Cat #C0980-10 MG, concentration 200 uM) was added into each well and the detection reaction proceeded for 60 min at 22° C. Fluorescence at 405/510 nm was measured in end-point mode using an Envision plate-reader (Perkin Elmer). IDBS Activity Base XE (ABase) analysis using 4 parameter logistic fit was performed to determine Minimum, Maximum, EC50, and Slope Factor for each compound.

Going from `C[C@]1(O)CCN(C(=O)c2cc(C(=O)N3CCCCC3)c3cc(OCc4nc5ccccc5s4)ccc3n2)C1` [Example 61, (S)(6-(benzo[d]thiazol-2-ylmethoxy)-2-(3-hydroxy-3-methylpyrrolidine-1-carbonyl)quinolin-4-yl)-(piperidin-1-yl)methanone] to `CC(=O)NC1CC2(CCN(C(=O)c3cc(C(=O)N4CCCCC4)c4cc(OCc5nc6ccccc6s5)ccc4n3)CC2)C1` [Example 73, N-(7-(6-(benzo[d]thiazol-2-ylmethoxy)-4-(piperi-dine-1-carbonyl)quinoline-2-carbonyl)-7-azaspiro-[3.5]nonan-2-yl)acetamide], the pEC50 rises from 6.88 to 7.41 (0.53 log units). The second is the more potent here.

Going from `CC(N1CCN(C(=O)c2cc(C(=O)N3CCCCC3)c3cc(OCc4nc5ccccc5s4)ccc3n2)CC1)C(F)(F)F` (stereo not shown) [Example 66, (6-(benzo[d]thiazol-2-yl-methoxy)-2-(4-(1,1,1-trifluoropropan-2-yl)-piperazine-1-carbonyl)-quinolin-4-yl)(piperidin-1-yl)methanone] to `O=C(c1cc(C(=O)N2CCCCC2)c2cc(OCc3nc4ccccc4s3)ccc2n1)N1CCN(CC(F)F)CC1` [Example 67, (6-(benzo[d]thiazol-2-yl-methoxy)-2-(4-(2,2-difluoroethyl)piperazine-1-carbonyl)quinolin-4-yl)-(piperidin-1-yl)methanone], the pEC50 falls from 7.78 to 7.46 (0.32 log units).

`Cc1c(COc2ccc3nc(C(=O)N4CCC(C)(O)C4)cc(C(=O)N4CCCCC4)c3c2)ccc2c1COC2=O` (single isomer, unassigned) [Example 5a, 5-(((2-(3-hydroxy-3-methylpyrrolidine-1-carbonyl)-4-(piperidine-1-carbonyl)quinolin-6-yl)oxy)methyl)-4-methylisobenzofuran-1(3H)-one] and `Cc1c(COc2ccc3nc(C(=O)N4CCC(n5cccn5)CC4)cc(C(=O)N4CCCCC4)c3c2)ccc2c1COC2=O` [Example 18, 5-(((2-(4-(1H-pyrazol-1-yl)-piperidine-1-carbonyl)-4-(piperidine-1-carbonyl)-quinolin-6-yl)oxy)methyl)-4-methylisobenzofuran-1(3H)-one] are within 0.2 log units of each other in pEC50: 7.50 for the first, 7.66 for the second.

First: COc1ccc(COc2ccc3nc(C(=O)N4CCC(C#N)(c5ccccc5)CC4)cc(C(=O)N4CCCCC4)c3c2)c(C(F)(F)F)c1 [Example 42, 1-(6-((4-methoxy-2-(tri-fluoromethyl)benzyl)oxy)-4-(piperidine-1-carbonyl)quin-oline-2-carbonyl)-4-phenyl-piperidine-4-carbonitrile]
Second: COc1cccc(COc2ccc3nc(C(=O)N4CCC(C#N)(c5ccccc5)CC4)cc(C(=O)N4CCCCC4)c3c2)c1 [Example 41, 1-(6-((3-methoxybenzyl)oxy)-4-(piperidine-1-carbonyl)quin-oline-2-carbonyl)-4-phenyl-piperidine-4-carbonitrile]
The pEC50 of the first is 0.21 log units lower: 7.31 for the first, 7.52 for the second.

`N#CC1(c2ccccc2)CCN(C(=O)c2cc(C(=O)N3CCCCC3)c3cc(OCc4ccc(OC(F)(F)F)cc4)ccc3n2)CC1` [Example 35, 4-phenyl-1-(4-(piperidine-1-carbonyl)-6-((4-(trifluoro-methoxy)benzyl)oxy)quin-oline-2-carbonyl)piperidine-4-carbonitrile] and `N#CC1(c2ccccc2)CCN(C(=O)c2cc(C(=O)N3CCCCC3)c3cc(OCc4cccc(OC(F)F)c4)ccc3n2)CC1` [Example 33, 1-(6-((3-(difluoro-l3-meth-oxy)phenyl)methoxy)-4-(piperidine-1-carbonyl)quin-oline-2-carbonyl)-4-phenyl-piperidine-4-carbonitrile] are within 0.2 log units of each other in pEC50: 7.42 for the first, 7.44 for the second.

`O=C(c1cc(C(=O)N2CCCCC2)c2cc(OCc3nc4ccccc4s3)ccc2n1)N1CCC(n2cc(F)cn2)CC1` [Example 69, (6-(benzo[d]thiazol-2-yl-methoxy)-2-(4-(4-fluoro-1H-pyrazol-1-yl)piperi-dine-1-carbonyl)quinolin-4-yl)(piperidin-1-yl) methanone] and `O=C(c1cc(C(=O)N2CCCCC2)c2cc(OCc3nc4ccccc4s3)ccc2n1)N1CCC(c2ncc[nH]2)CC1` [Example 74, (4-(1H-imidazol-2-yl)-piperidin-1-yl)(6-(benzo-[d]thiazol-2-ylmethoxy)-4-(piperidine-carbonyl)-quinolin-2-yl)methanone] are within 0.2 log units of each other in pEC50: 7.34 for the first, 7.49 for the second.

`O=C(c1cc(C(=O)N2CCCCC2)c2cc(OCc3ncc(C(F)(F)F)cc3Cl)ccc2n1)N1CCC(n2cccn2)CC1` [Example 12, (4-(1H-pyrazol-1-yl)piperidin-1-yl)(6-((3-chloro-5-(trifluoro-methyl)pyridin-2-yl)methoxy)-4-(piperidine-1-carbonyl)-quinolin-2-yl)methanone] and `O=C(c1cc(C(=O)N2CCCCC2)c2cc(OCc3ccc4nonc4c3)ccc2n1)N1CCC(n2cccn2)CC1` [Example 14, (4-(1H-pyrazol-1-yl)piperidin-1-yl)(6-(benzo[c][1,2,5]-oxadiazol-5-ylmethoxy)-4-(piperidine-1-carbonyl)-quinolin-2-yl)methanone] are within 0.2 log units of each other in pEC50: 7.77 for the first, 7.83 for the second.

`O=C(c1cc(C(=O)N2CCCCC2)c2cc(OCc3nc4ccccc4o3)ccc2n1)N1CCC(n2cccn2)CC1` [Example 23, (4-(1H-pyrazol-1-yl)piperidin-1-yl)(6-(benzo[d]oxazol-2-ylmethoxy)-4-(piperidine-1-carbonyl)quinolin-2-yl) methanone] and `Cn1ncc2cc(COc3ccc4nc(C(=O)N5CCC(n6cccn6)CC5)cc(C(=O)N5CCCCC5)c4c3)ccc21` [Example 17, (4-(1H-pyrazol-1-yl)piperidin-1-yl)(6-((1-methyl-1H-indazol-5-yl)methoxy)-4-(piperidine-1-carbonyl)quinolin-2-yl) methanone] are within 0.2 log units of each other in pEC50: 7.44 for the first, 7.29 for the second.

`N#Cc1ccc(COc2ccc3nc(C(=O)N4CCC(n5cccn5)CC4)cc(C(=O)N4CCCCC4)c3c2)cc1` [Example 9, 4-(((2-(4-(1H-pyrazol-1-yl)-piperidine-1-carbonyl)-4-(piperidine-1-carbonyl)-quinolin-6-yl)oxy)methyl) benzonitrile] and `O=C(c1cc(C(=O)N2CCCCC2)c2cc(OCc3ccc4nnsc4c3)ccc2n1)N1CCC(n2cccn2)CC1` [Example 6, (4-(1H-pyrazol-1-yl)piperidin-1-yl)(6-(benzo[d][1,2,3]thiadiazol-6-ylmethoxy)-4-(piperidine-1-carbonyl)quinolin-2-yl)methanone] are within 0.2 log units of each other in pEC50: 7.40 for the first, 7.31 for the second.

`N#CC1(c2ccccc2)CCN(C(=O)c2cc(C(=O)N3CCCCC3)c3cc(OCc4ccc(-c5nnco5)cc4)ccc3n2)CC1` [Example 34, 1-(6-((4-(1,3,4-oxadiazol-2-yl)benzyl)oxy)-4-(piperidine-1-carbonyl)quinoline-2-car-bonyl)-4-phenylpiperidine-4-carbonitrile] and `N#CC1(c2ccccc2)CCN(C(=O)c2cc(C(=O)N3CCCCC3)c3cc(OCc4noc5ccccc45)ccc3n2)CC1` [Example 51, 1-(6-(benzo[d]isoxazol-3-yl-methoxy)-4-(piperidine-1-carbonyl)quinoline-2-carbon-yl)-4-phenylpiperidine-4-carbonitrile] are within 0.2 log units of each other in pEC50: 7.38 for the first, 7.39 for the second.

Compared with `O=C1OCc2cc(COc3ccc4nc(C(=O)N5CCC(n6cccn6)CC5)cc(C(=O)N5CCCCC5)c4c3)ccc21` [Example 19, 5-(((2-(4-(1H-pyrazol-1-yl)-piperidine-1-carbonyl)-4-(piperidine-1-carbonyl)-quinolin-6-yl)oxy)methyl)-isobenzofuran-1(3H)-one], `O=C(c1cc(C(=O)N2CCCCC2)c2cc(OCc3ccc4snnc4c3)ccc2n1)N1CCC(n2cccn2)CC1` [Example 7, (4-(1H-pyrazol-1-yl)piperidin-1-yl)(6-(benzo[d][1,2,3]thiadiazol-5-ylmethoxy)-4-(piperidine-1-carbonyl)quinolin-2-yl)methanone] is 0.21 log units higher in pEC50: 7.50 for the first, 7.71 for the second. The second is the more potent here.

`O=C(c1cc(C(=O)N2CCC(F)CC2)c2cc(OCc3nc4ccccc4s3)ccc2n1)N1CCC(n2cccn2)CC1` [Example 52, (4-(1H-pyrazol-1-yl)piperidin-1-yl)(6-(benzo[d]thiazol-2-ylmethoxy)-4-(4-fluoropiperidine-1-carbonyl)quinolin-2-yl)methanone] and `O=C(c1cc(C(=O)N2CCCCC2)c2cc(OCc3nc4ccccc4s3)c(F)cc2n1)N1CCC(n2cccn2)CC1` [Example 75, (4-(1H-pyrazol-1-yl)piperidin-1-yl)(6-(benzo[d]thiazol-2-ylmethoxy)-7-fluoro-4-(piperidine-1-carbonyl)quinolin-2-yl)methanone] are within 0.2 log units of each other in pEC50: 7.55 for the first, 7.73 for the second.

Work on `Cn1nnc2cc(COc3ccc4nc(C(=O)N5CCC(n6cccn6)CC5)cc(C(=O)N5CCCCC5)c4c3)ccc21` [Example 15, (4-(1H-pyrazol-1-yl)piperidin-1-yl)(6-((1-methyl-1H-benzo-[d][1,2,3]triazol-5-yl)methoxy)-4-(piperidine-1-carbonyl)-quinolin-2-yl)methanone] yielded a pEC50 of 7.63.
